Data published in US7122524B2, “Tripeptides and tripeptide derivatives for the treatment of postlesional disease of the nervous system” (Neurotell AG, priority 2002, dated 2006).
Converted amounts (≈) assume the structure as drawn. Where a name gives a salt, the structure may show the parent alone. Read-outs that look alike come from different tables or passages of the source. Residues, ends and D or L forms follow the SMILES beside them.

Experiments:
cholinergic nerve ends = assay: Sprouting assay (dendrite length after septum lesion); type: in vivo, rat; settings: rats, septum of hippocampus destroyed; 20 mg/per kg bodyweight per day over at least 15 days
Description: The sprouting of nerve cells is determined by the length of the dendrites. According to the present invention, the influence of the substances used according to the present invention on the sprouting is studied in an in vivo assay.
The septum of the hippocampus of 10 rats was destroyed (see Hagg et al; Exp. Neurol., 101, 303–312). 21 days after the impairment of the hippocampus was unambiguous, as confirmed by a behavioural test, the rats were divided into two groups of 5 rats each. 20 mg/per kg bodyweight per day of the substance used according to the present invention (GFPNH2) was administered to the test group of 5 rats over at least 15 days.
After administration, the animals were killed, and the cholinergic nerve ends were observed by a CAT (choline-acetyl-transferase) immunofluorescence assay under a fluorescence microscope. The length of the dendrites was measured thereby.

[1] = Metabolic stability in rat hepatocytes; type: in vitro ADME; settings: male, Wistar, 10^6 cells/ml, analysed during 24 h, read-out: T½ (converted)
Text: Hepatocytes from adult male Wistar rats (IFFA Credo, L'Arbresle, France) were isolated by an in situ liver perfusion using collagenase (purchased from Sigma (St. Louis, Mo., U.S.A), according to a procedure described by Seglen (Preparation of isolated rat liver cell, Methods Cell Biol. 13, 29–83, 1976) and modified by Williams et al. (Rat hepatocyte primary culture. III. Improved dissociation and attachment techniques and the enhancement of survival by culture medium, in vitro 13: 809–817, 1977). After estimation of cell viability by the peripheral refractoriness of intact cells in phase contrast microscopy and the trypan blue test, freshly isolated hepatocytes were washed in basal William's medium E (WME) supplemented with 10% (v/v) fetal calf serum, 70 μM cortisol, 2 mM L-glutamine, 10 mM HEPES buffer, and 4 mM NaOH. They were then plated at a density of 0,5×10^6 cells per 50 mm plastic cell culture dishes in the medium described previously for cell attachment for 6 hours at 37° C. Subsequently, hepatocytes were washed three times in serum- and cholesterol-free medium (SF-WME) containing 4 g/l bovine albumin fraction V (Sigma) as transporter for 7.8 μM of a mixture of free fatty acids (Cheesebeuf M and Padieu P, expression of major liver metabolic function in long-term serum-free rat liver epithelial cell lines. In vitro 20: 780–795, 1984), and then were transferred to the SF-WME supplemented with the various tripeptides of formula (I). For each group of experiments, hepatocytes from three or four livers were used.
Significances are calculated using Student's t-test. Values are expressed as mean±SD.
• Method: (Hepatocytes in suspension) • Plasma sample: Precipitation with trichloracetic acid. • Centrifugation and aliquot of supernatant to HPLC. • […] column: Nucleosil C18 (250×4,6 mm). • Buffer TEAP 0,1%/CH3CN, 1 ml/min • Readings at 210 nm. […]
Each substance of each concentration will be analysed 10 times during 24 h (1 h, 2 h, 4 h, 6 h, 8 h, 10 h, 12 h, 16 h, 20 h, 24 h).

[2] = literature value; cited from earlier work
[3] = freshly isolated rat hepatocytes (in suspension)

thyreoliberin [TRH, reference compound]
predicted absorption after peroral application (PAMPA classification) (classification by flux rate): weakly absorbed

NCC(=O)N[C@@H](Cc1ccccc1)C(=O)N1CCC[C@H]1C(N)=O [HCl-Gly-Phe-ProNH2, glycyl-L-phenylalanyl-L-prolineamide] (H-Gly-Phe-Pro-NH2)
predicted absorption after peroral application (PAMPA classification) (PAMPA): weakly absorbed
increase of the dendrite length (cholinergic nerve ends): 8 to 10 μm

CC[C@H](C)[C@H](NC(=O)[C@H]([C@@H](C)CC)N(CC)CC)C(=O)N1CCC[C@H]1C(N)=O [N,N-Diethyl-Ile-Ile-ProNH2, N,N-diethyl-isoleucyl-isoleucyl-prolineamide]
predicted absorption after peroral application (PAMPA classification) (PAMPA): medium to highly absorbed
solubility (physchem): 1000 µg/mL (≈ 2520 µM)
half-life [1, 3]: 3.4 h

C[C@]12CCC(=O)C=C1CC[C@@H]1[C@@H]2[C@@H](O)C[C@@]2(C)[C@H]1CC[C@]2(O)C(=O)CO [Hydrocortisone]
flux rate published by Kansy et al. [2]: 52%

O=c1ccc2ccccc2o1 [Coumarin]
flux rate published by Kansy et al. [2]: 66%

CCNC(=O)[C@@H]1CCCN1C(=O)[C@H](Cc1ccccc1)NC(=O)[C@H]([C@@H](C)CC)N(CC)CC [N,N-Diethyl-Ile-Phe-ProNHEt, N,N-diethyl-isoleucyl-phenylalanyl-L-proline ethylamide]
predicted absorption after peroral application (PAMPA classification) (PAMPA): medium to highly absorbed
solubility (physchem): 1000 µg/mL (≈ 2180 µM)
half-life [1, 3]: 4.5 h

CC[C@H](C)[C@H](NC(=O)CN(CC)CC)C(=O)N1CCC[C@H]1C(N)=O [N,N-Diethyl-Gly-Ile-ProNH2]
predicted absorption after peroral application (PAMPA classification) (PAMPA): medium to highly absorbed
half-life ([1]; freshly isolated rat hepatocytes): 2.8 h

CC[C@H](C)[C@H](NC(C)C)C(=O)N[C@H](C(=O)N1CCC[C@H]1C(N)=O)[C@@H](C)CC [N-Isopropyl-Ile-Ile-ProNH2]
predicted absorption after peroral application (PAMPA classification) (PAMPA): medium to highly absorbed
